Activity calls are given as the source filed them. The calls are words filed in the database; no cut-off is given here.
Legend:
[1] = tested on: HeLa; assay: cells; details: Homo sapiens, 48 h
Description: Cytotoxicity against human HeLa cells after 48 hrs by MTT assay

[2] = tested on: A549; assay: Cell cycle arrest in human A549 cells assessed as accumulation at G2/M phase at 1 uM after 48 hrs by propidium iodide staining based flow cytometry (reference value: 7.4%); type: functional
[3] = biological target: Tubulin (Homo sapiens) (UniProt P68371+Q9H4B7+P0DPH7+P68366+Q13509+Q71U36+P04350+Q3ZCM7+P07437+P68363+Q9BQE3+Q6PEY2+Q13885+Q9BVA1+Q9BUF5); assay: Inhibition of tubulin polymerization (unknown origin) at 3 uM after 1 hr by fluorescence assay relative to control; type: protein-complex assay
[4] = tested on: A549; assay: Cell cycle arrest in human A549 cells assessed as accumulation at G0/G1 phase at 0.5 uM after 48 hrs by propidium iodide staining based flow cytometry (reference value: 90.52%); type: functional
[5] = tested on: A549; assay: Induction of apoptosis in human A549 cells assessed as necrotic cells at 0.5 uM after 48 hrs by Annexin V-FITC/propidium iodide staining based flow cytometry (reference value: 1.17%); type: functional
[6] = tested on: A549; assay: Induction of mitochondrial membrane potential loss in human A549 cells assessed as collapse of the mitochondrial membrane potential at 1 uM after 48 hrs by JC1 staining based flow cytomtery (reference value: 3.5%); type: functional
[7] = tested on: A549; assay: Induction of mitochondrial membrane potential loss in human A549 cells assessed as collapse of the mitochondrial membrane potential at 0.5 uM after 48 hrs by JC1 staining based flow cytomtery (reference value: 3.5%); type: functional
[8] = tested on: A549; assay: Induction of apoptosis in human A549 cells assessed as formation of apoptotic bodies at 0.5 uM after 48 hrs by Hoechst 33258 staining based fluorescence microscopic analysis; type: functional, cell-based
[9] = tested on: MCF7; assay: cells; details: Homo sapiens, MCF7, 48 h
Description: Cytotoxicity against human MCF7 cells after 48 hrs by MTT assay

[10] = tested on: A549; assay: Cell cycle arrest in human A549 cells assessed as accumulation at S phase at 1 uM after 48 hrs by propidium iodide staining based flow cytometry (reference value: 1.92%); type: functional
[11] = tested on: DU-145; assay: Cytotoxicity against human DU145 cells after 48 hrs by MTT assay; type: functional, cell-based; details: DU-145, 48 h
[12] = tested on: A549; assay: Cell cycle arrest in human A549 cells assessed as accumulation at sub-G1 phase at 0.5 uM after 48 hrs by propidium iodide staining based flow cytometry (reference value: 1.11%); type: functional
[13] = tested on: A549; assay: Cell cycle arrest in human A549 cells assessed as accumulation at G0/G1 phase at 1 uM after 48 hrs by propidium iodide staining based flow cytometry (reference value: 90.52%); type: functional
[14] = tested on: A549; assay: Induction of apoptosis in human A549 cells assessed as late apoptotic cells at 0.5 uM after 48 hrs by Annexin V-FITC/propidium iodide staining based flow cytometry (reference value: 3.83%); type: functional
[15] = tested on: A549; assay: Cell cycle arrest in human A549 cells assessed as accumulation at G2/M phase at 0.5 uM after 48 hrs by propidium iodide staining based flow cytometry (reference value: 7.4%); type: functional
[16] = tested on: A549; assay: Induction of mitochondrial membrane potential loss in human A549 cells assessed as intact mitochondrial membrane at 1 uM after 48 hrs by JC1 staining based flow cytomtery (reference value: 96.3%); type: functional
[17] = tested on: A549; assay: Induction of apoptosis in human A549 cells assessed as cytoplasmic condensation at 0.5 uM after 48 hrs by Hoechst 33258 staining based fluorescence microscopic analysis; type: functional, cell-based
[18] = tested on: A549; assay: Induction of mitochondrial membrane potential loss in human A549 cells assessed as intact mitochondrial membrane at 0.5 uM after 48 hrs by JC1 staining based flow cytomtery (reference value: 96.3%); type: functional
[19] = tested on: A549; assay: Cell cycle arrest in human A549 cells assessed as accumulation at sub-G1 phase at 1 uM after 48 hrs by propidium iodide staining based flow cytometry (reference value: 1.11%); type: functional
[20] = tested on: A549; assay: Induction of apoptosis in human A549 cells assessed as late apoptotic cells at 1 uM after 48 hrs by Annexin V-FITC/propidium iodide staining based flow cytometry (reference value: 3.83%); type: functional
[21] = tested on: A549; assay: Induction of apoptosis in human A549 cells assessed as early apoptotic cells at 0.5 uM after 48 hrs by Annexin V-FITC/propidium iodide staining based flow cytometry (reference value: 1.03%); type: functional
[22] = biological target: Tubulin; assay: Inhibition of tubulin polymerization (unknown origin) after 1 hr by fluorescence assay; type: protein-complex assay, Homo sapiens
[23] = tested on: A549; assay: Disruption of microtubule organization in human A549 cells at 0.5 uM after 48 hrs by fluorescence microscopic analysis; type: cell-based
[24] = tested on: A549; assay: Cell cycle arrest in human A549 cells assessed as accumulation at S phase at 0.5 uM after 48 hrs by propidium iodide staining based flow cytometry (reference value: 1.92%); type: functional
[25] = tested on: A549; assay: Induction of apoptosis in human A549 cells assessed as necrotic cells at 1 uM after 48 hrs by Annexin V-FITC/propidium iodide staining based flow cytometry (reference value: 1.17%); type: functional
[26] = tested on: A549; assay: cells; details: Homo sapiens, A549, 48 h
Description: Cytotoxicity against human A549 cells after 48 hrs by MTT assay

[27] = tested on: A549; assay: Induction of apoptosis in human A549 cells assessed as nuclear fragmentation at 0.5 uM after 48 hrs by Hoechst 33258 staining based fluorescence microscopic analysis; type: functional, cell-based
[28] = tested on: A549; assay: Induction of apoptosis in human A549 cells assessed as live cells at 0.5 uM after 48 hrs by Annexin V-FITC/propidium iodide staining based flow cytometry (reference value: 93.97%); type: functional
[29] = tested on: A549; assay: Induction of apoptosis in human A549 cells assessed as early apoptotic cells at 1 uM after 48 hrs by Annexin V-FITC/propidium iodide staining based flow cytometry (reference value: 1.03%); type: functional
[30] = tested on: A549; assay: Induction of apoptosis in human A549 cells assessed as live cells at 1 uM after 48 hrs by Annexin V-FITC/propidium iodide staining based flow cytometry (reference value: 93.97%); type: functional

SMILES: O=C(/C=C\Nc1ccc(Br)cc1)c1c(-c2ccc(Cl)cc2)nc2ccccn12
- IC50 [1]: 1480 nM
- Activity [2]: 29.84%
- inhibition [3]: 66.5%
- Activity [4]: 83.28%
- Activity [5]: 1.6 - 1.64%
- Activity [6]: 30.1%
- Activity [7]: 20.3%
- Activity [8]: Active
- IC50 [9]: 2690 nM
- Activity [10]: 5.62%
- IC50 [11]: 1500 nM
- Activity [12]: 0.66%
- Activity [13]: 65.94%
- Activity [14]: 9.9 - 9.94%
- Activity [15]: 14.4%
- Activity [16]: 63.9%
- Activity [17]: Active
- Activity [18]: 75.9%
- Activity [19]: 0.86%
- Activity [20]: 18.06 - 18.1%
- Activity [21]: 21.9 - 21.91%
- IC50 [22]: 1930 nM
- Activity [23]: Active
- Activity [24]: 2.68%
- Activity [25]: 1.38 - 1.4%
- IC50 [26]: 933 nM
- Activity [27]: Active
- Activity [28]: 66.5 - 66.51%
- Activity [29]: 33.97 - 34%
- Activity [30]: 46.59 - 46.6%
